In article PMC3121703, “Inhibitory activity of 9-phenylcyclohepta[d]pyrimidinedione derivatives against different strains of HIV-1 as non-nucleoside reverse transcriptase inhibitors” (Virology Journal, 2011):
Like-named read-outs stand apart in the source and are kept apart here.

Columns and labels:
XTT cytotoxicity assay = type: cell-based; details: human
Method: (§1) XTT assay was used to test the cytotoxicity of BmPCP on MT4 cells, human PBMCs (non-stimulated) and TZM-bl cells.
(§2) An XTT assay, as previously described, was used for assessing the cytotoxicity of BmPCP to the cells tested for anti-HIV-1 activity. Briefly, BmPCP at graded concentrations was added to MT4 cells, PBMCs, and TZM-bl cells at 4 × 10^4, 1 × 10^5 and 1 × 10^4 cells per well, respectively, followed by an incubation at 37°C for 3 days. Ten microliters of CCK-8 reagent was added to the cells. After incubation at 37°C, for 4 h to allow color development of the XTT formazan product, the absorbance of each well was then read at 450 nm in a Victor2 1420 Multilabel Counter (Wallace-PerkinElmer Life and Analytical Sciences Inc., Boston, MA). The percent of cytotoxicity and CC50 were calculated as previously described.

HIV-1 SF33 [1] = test: HIV-1 inhibition assay, MT4 cells, p24 ELISA; type: cell-based; details: for IC50: Human immunodeficiency virus 1
Method: (§3) The inhibitory activity of BmPCP, APCP, BPCP and EPCP on infection by laboratory-adapted HIV-1 strains was tested in TZM-bl cells, MT4 cells or PBMCs, respectively, as previously described. TZM-bl cells were seeded at 10^4/well and cultured in a 96-well tissue culture plate overnight, followed by addition of 200 TCID50 (50% Tissue Culture Infective Dose) of HIV-1 virus. After incubation at 37°C for 2 hrs, BmPCP at graded concentrations was added. After further incubation at 37°C for 48 hrs, the luciferase activity was measured using a luciferase assay kit (Promega Corp.) according to the manufacturer's instructions. MT4 cells (4 × 10^4/well) and PBMCs (1 × 10^5/well) were infected by addition of 200 TCID50 of HIV-1 virus, followed by incubation for 2 hrs at 37°C before addition of BmPCP at serial dilutions. After further incubation at 37°C for 4 days (for MT4 cells) or 7 days (for PBMCs), HIV-1 p24 was measured using a commercial enzyme-linked immunosorbent assay (ELISA) kit (Vironostika HIV-1 Microelisa system; BioMérieux; Marcy l'Etoile, France). The inhibitory activity of BmPCP on infection by primary HIV-1 isolates was also tested in PBMCs as described above. The percent of inhibition and the IC50 were calculated as previously described.

HIV-1 SF33 [2] = test: HIV-1 inhibition assay, TZM-bl cells, luciferase; type: cell-based; details: for IC50: Human immunodeficiency virus 1
Method: as §3

[3] = biological target: HIV-1 reverse transcriptase (Human immunodeficiency virus type 1 group M subtype B, UniProt P04585); test: ELISA RT assay for inhibition of HIV-1 reverse transcriptase activity
From the text: Oligo(dT) 15 was immobilized via its 5'-terminal phosphate to Covalink-NH microtiter plates. The biotin-dUTP was incorporated by reverse transcriptase. The products were detected and quantified using a colorimetric strep- tavidin-alkaline phosphatase reporter system.
Briefly, Oligo(dT) 15 was immobilized via its 5'-terminal phosphate to CovaLink NH microtiter plates. The biotin-dUTP was incorporated by reverse transcriptase. The products were detected and quantified using a colorimetric streptavidin alkaline phosphatase reporter system.

HIV-1 1617-1 = test: microbe, parasite or virus in culture; type: cell-based
Method: We tested the antiviral activity of BmPCP in three cells including peripheral blood mononuclear cells (PBMCs), TZM-b1 and MT4 cells by using HIV-1SF33 and HIV-1 1617-1, a variant bearing K70G, 184V, 75I, 77L, I16Y and I51M mutations, which are resistant to NRTIs (e.g., d4T, DDI and AZT).
as §3

[4] = XTT cytotoxicity assay, summary over cells; type: cell-based; details: human, human PBMCs (non-stimulated) and TZM-bl cells, MT4, PBMCs and TZM-bl cells, read-out: CC50, range
Method: as §1, §2

MT4 cells = test: XTT cytotoxicity assay; type: cell-based
Method: as §1, §2

TZM-bl cells = test: XTT cytotoxicity assay; type: cell-based
Method: as §1, §2

HIV-1 SF33 [5] = test: HIV-1 inhibition assay, PBMCs, p24 ELISA; type: cell-based; details: for IC50: Human immunodeficiency virus 1, PBMC
Method: as §3

HIV-1SF33 = test: Time-of-addition assay; type: cell-based; details: for Antiviral activity in time-of-addition assay: added eight hours post-infection, BmPCP 13.3 μM, NVP 5 μM
Method: Figure 2 Time-of-addition assay of compounds. TZM-bl cells were infected with HIV-1SF33 at 200 TCID50.
MT4 cells were seeded at 10^4/well and cultured in a 96-well tissue culture plate overnight, followed by addition of 200 TCID50 of HIV-1SF33. […] HIV-1 p24 was measured using a commercial enzyme-linked immunosorbent assay (ELISA) kit (Vironostika HIV-1 Microelisa system; BioMérieux; Marcy l'Etoile, France).

HIV-1 XJ0793 = test: Primary HIV-1 isolate inhibition in PBMCs; type: cell-based; details: primary isolate XJ0793, subtype B'/C, R5, PBMCs; for IC50: Human immunodeficiency virus 1, PBMC
Method: (§4) HIV-1CRF07_BC and B' (Thailand B, a kind variant of subtype B) are two epidemic strains in China. Furthermore, to verify the antiviral activity on China clinical isolates, CRF07_BC and B' were chosen.
as §3

HIV-1 AH259 = test: Primary HIV-1 isolate inhibition in PBMCs; type: cell-based; details: primary isolate AH259, subtype B', R5, PBMCs; for IC50: Human immunodeficiency virus 1, PBMC
Method: as §4, §3

HIV-1 XJ6291 = test: Primary HIV-1 isolate inhibition in PBMCs; type: cell-based; details: for IC50: Human immunodeficiency virus 1, PBMC
Method: as §4, §3

HIV-1 AH968 = test: Primary HIV-1 isolate inhibition in PBMCs; type: cell-based; details: primary isolate AH968, subtype B', R5, PBMCs; for IC50: Human immunodeficiency virus 1, PBMC
Method: as §4, §3

HIV-1 AH104 = test: Primary HIV-1 isolate inhibition in PBMCs; type: cell-based; details: Human immunodeficiency virus 1, PBMC; primary isolate AH104, subtype B', X4/R5, PBMCs
Method: as §4, §3

HIV-1 XJ257 = test: Primary HIV-1 isolate inhibition in PBMCs; type: cell-based; details: primary isolate XJ257, subtype B'/C, R5, PBMCs; for IC50: Human immunodeficiency virus 1, PBMC
Method: as §4, §3

HIV-1 = HIV-1 inhibition assays, summary over strains and cells; type: cell-based; details: broad spectrum of HIV-1 strains incl. Chinese clinical isolates
Method: as §3

[6] = Human immunodeficiency virus 1, MT4
[7] = Human immunodeficiency virus 1, PBMC
[8] = Human immunodeficiency virus 1, TZM-bl

Row | IC50 (HIV-1 SF33 [1]) | IC50 (HIV-1 SF33 [2]) | Compound | CC50 at 3 days (XTT cytotoxicity assay; MT4 cells) | CC50 at 3 days (XTT cytotoxicity assay; TZM-bl cells) | SI (Selectivity index = CC50/IC50) (HIV-1 SF33 [1]) | SI (Selectivity index = CC50/IC50) (HIV-1 SF33 [2]) | IC50 (HIV-1 1617-1; [6]) | IC50 (HIV-1 1617-1; [7]) | IC50 (HIV-1 1617-1; [8]) | IC50 (HIV-1 SF33 [5]) | Antiviral activity in time-of-addition assay (HIV-1SF33) | IC50 (HIV-1 XJ0793) | IC50 (HIV-1 AH259) | IC50 (HIV-1 AH968) | IC50 (HIV-1 AH104) | IC50 (HIV-1 XJ257) | further results
1 | 115000 nM | 9000 nM | O=c1[nH]c(=O)n(Cc2ccccc2)c2c1CCCCC2c1ccccc1 (stereo not drawn) [BPCP] | 132000 nM | 180000 nM | 1.15 | 20 |  |  |  |  |  |  |  |  |  |  | 
2 | 7500 nM | 1600 nM | CCOCn1c2c(c(=O)[nH]c1=O)CCCCC2c1ccccc1 (stereo not drawn) [EPCP] | 29300 nM | 22000 nM | 3.9 | 13.75 |  |  |  |  |  |  |  |  |  |  | 

Continued, compound first:

Row | Compound | IC50 (HIV-1 SF33 [1]) | IC50 (HIV-1 SF33 [2]) | CC50 at 3 days (XTT cytotoxicity assay; MT4 cells) | CC50 at 3 days (XTT cytotoxicity assay; TZM-bl cells) | SI (Selectivity index = CC50/IC50) (HIV-1 SF33 [1]) | SI (Selectivity index = CC50/IC50) (HIV-1 SF33 [2]) | IC50 (HIV-1 1617-1; [6]) | IC50 (HIV-1 1617-1; [7]) | IC50 (HIV-1 1617-1; [8]) | IC50 (HIV-1 SF33 [5]) | Antiviral activity in time-of-addition assay (HIV-1SF33) | IC50 (HIV-1 XJ0793) | IC50 (HIV-1 AH259) | IC50 (HIV-1 AH968) | IC50 (HIV-1 AH104) | IC50 (HIV-1 XJ257) | further results
3 | C=CCn1c2c(c(=O)[nH]c1=O)CCCCC2c1ccccc1 (stereo not drawn) [APCP] | 28600 nM | 1300 nM | 62000 nM | 50000 nM | 2.17 | 38.46 |  |  |  |  |  |  |  |  |  |  | 
4 | O=c1[nH]c(=O)n(COCc2ccccc2)c2c1CCCCC2c1ccccc1 (stereo not drawn) [BmPCP] | 1960 nM | 340 nM | 90300 nM | 129000 nM | 84 | 266 | 1470 ± 430 nM | 1760 ± 230 nM | 1450 ± 210 nM | 1720 ± 370 nM | demonstrated antiviral activity | 250 ± 30 nM | 320 ± 150 nM | 440 ± 170 nM | 590 ± 340 nM | 530 ± 70 nM | IC50 [3]: 1510 nM; SI (Selectivity index = CC50/IC50) (HIV-1 1617-1; 1617-1/PBMCs): 65; SI (Selectivity index = CC50/IC50) (HIV-1 1617-1; 1617-1/TZM-bl): 62; CC50 at 3 days [4]: 90000 to 165000 nM; CC50 (MT4 cells): 165000 nM; CC50 (TZM-bl cells): 90300 nM; CC90 at 3 days (XTT cytotoxicity assay; MT4 cells): 383000 ± 53500 nM; CC50 at 3 days (XTT cytotoxicity assay; PBMCs (non-stimulated), PBMC): 114000 ± 9380 nM; CC90 at 3 days (XTT cytotoxicity assay; PBMCs (non-stimulated), PBMC): 229000 ± 6400 nM; CC90 at 3 days (XTT cytotoxicity assay; TZM-bl cells): 208000 ± 8690 nM; SI (Selectivity index = CC50/IC50) (HIV-1 SF33 [5]): 67; SI (Selectivity index = CC50/IC50) (HIV-1 XJ0793): 361; SI (Selectivity index = CC50/IC50) (HIV-1 AH259): 282; IC50 (HIV-1 XJ6291): 570 ± 20 nM; SI (Selectivity index = CC50/IC50) (HIV-1 XJ6291; primary isolate XJ6291, subtype B'/C, R5, PBMCs): 158; SI (Selectivity index = CC50/IC50) (HIV-1 AH968): 205; SI (Selectivity index = CC50/IC50) (HIV-1 XJ257): 170; IC50, level over HIV-1 strains (HIV-1): low μM levels
5 | Cc1ccnc2c1NC(=O)c1cccnc1N2C1CC1 [NVP, nevirapine, reference compound] | 650 ± 230 nM | 190 ± 20 nM |  |  |  |  | 440 ± 120 nM | 570 ± 80 nM | 160 ± 100 nM | 690 ± 70 nM | demonstrated antiviral activity | 79 ± 97 nM | 7 ± 1 nM | 58 ± 60 nM | 7 ± 3 nM | 211 ± 120 nM | IC50 (HIV-1 XJ6291; primary isolate XJ6291, subtype B'/C, R5, PBMCs, read-out: IC50): 186 ± 224 nM
6 | Enfuvirtide [T20] |  |  |  |  |  |  |  |  |  |  |  |  |  |  |  |  | Inhibitory activity in time-of-addition assay (HIV-1SF33; added one hour after viral infection, T-20 5 μM): no inhibitory activity
